Format in all cases: in vivo
Data set [1] has as its system southern armyworm (Spodopetra eridania Cramer). Put plainly: Mite/insect screen, SAW. To be noted: percent mortality, SAW; for mortality at 200 ppm / mortality at 400 ppm: Spodoptera eridania, read-out: SAW RESULTS %; for mortality at 400 ppm: SM & MA RATE 400 PPM. A digest of the protocol:
(§1)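 Read-out: percent mortality after standard exposure periods. Test solutions were water dilutions of compound dissolved in acetone/alcohol (50:50) with emulsifier blends; leaves were sprayed to runoff on both surfaces and air-dried for one hour before exposure.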

Data set [2] concerns Cercospora beticola (leaf spot). The experiment in a line: Test 1 greenhouse foliar spray screen, leaf spot on sugar beet. To be noted: disease control rating, foliar spray on sugar beet, 400 ppm (+++ at 100 ppm).
Data set [3] relates to corn rootworm. The experiment in a line: Mite/insect screen, CRW. To be noted: percent mortality; for mortality at 12 ppm / mortality at 24 ppm: read-out: CRW RESULTS %; for mortality at 24 ppm: CRW RATE 24.00 PPM. An outline of the steps:
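Read-out: % mortality after standard exposure. Formulation: acetone/alcohol (50:50) with emulsifiers at 23 g and 13 g per liter, water-diluted to final test levels.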

Data set [4] deals with Pyricularia oryzae (rice blast). Put plainly: whole plant or invertebrate. To be noted: disease control rating, foliar spray on rice, 400 ppm (+++ at 100 ppm).
Data set [5] relates to Twospotted spider mites (Tetranychus urticae Koch). Put plainly: Mite/insect screen, SM. To be noted: for mortality at 200 ppm / mortality at 400 ppm: Tetranychus urticae, read-out: SM RESULTS %; for activity as miticides: summary statement in the description; for mortality at 400 ppm: SM & MA RATE 400 PPM. An outline of the steps:
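Foliar spray to runoff (10 psi), 1 h drying; aqueous dilutions from acetone/alcohol emulsifier stock. Mortality (%) after standard exposure.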

Data set [6] relates to Erysiphe graminis tritici (powdery mildew). The experiment in a line: Test 1 greenhouse foliar spray screen, powdery mildew on wheat. To be noted: disease control rating, foliar spray on wheat, 400 ppm (+++ at 100 ppm).
Data set [7] concerns Botrytis cinerea (gray mold). Put plainly: Test 1 greenhouse foliar spray screen, gray mold on grape berries. To be noted: disease control rating, spray on grape berries, 400 ppm (+++ at 100 ppm).
Data set [8] concerns Pseudoperonospora cubensis (downy mildew). The experiment in a line: Test 1 greenhouse foliar spray screen, downy mildew on squash. To be noted: disease control rating, foliar spray on squash, 400 ppm (+++ at 100 ppm).
The subject of data set [9] is Puccinia recondita tritici (leaf rust). Put plainly: Test 1 greenhouse foliar spray screen, leaf rust on wheat. To be noted: disease control rating, foliar spray on wheat, 400 ppm (+++ at 100 ppm).
Data set [10] has as its system melon aphids (Aphis gossypii Glover). Put plainly: Mite/insect screen, MA. Conditions: percent mortality, SAW; for mortality at 200 ppm / mortality at 400 ppm: Aphis gossypii, read-out: MA RESULTS %; for mortality at 400 ppm: SM & MA RATE 400 PPM. An outline of the steps:
as §1

Data set [11] relates to Septoria tritici (leaf blotch). Put plainly: Test 1 greenhouse foliar spray screen, leaf blotch on wheat. Conditions: disease control rating, foliar spray on wheat, 400 ppm (+++ at 100 ppm).
For data set [12], the system named is Venturia inaequalis (apple scab). The experiment in a line: Test 1 greenhouse foliar spray screen, apple scab on apple seedling. Conditions: disease control rating, foliar spray on apple seedling, 400 ppm (+++ at 100 ppm).
Where [13] appears, read: percent mortality, SAW, SM & MA RATE 200 PPM.

For the compound `Fc1cccc2c(NCCc3ccc(Cl)cc3)ccnc12` [Example 96, N-[2-(4-chlorophenyl)ethyl)-8-fluoro-4-quinolinamine], in [1] (SM & MA RATE 200 PPM), the mortality at 200 ppm was 100% and the “SAW RESULTS %” value was determined as 100%. For the same compound, in data set [2], the “LEAF SPOT” value was “+++ (90-100% control at 100 ppm)”. Further, in data set [3] (CRW RATE 12.00 PPM), the “CRW RESULTS %” value is listed as 0% and the mortality at 12 ppm is 0%. In addition, the “RICE BLAST” value in [4] is “+++ (90-100% control at 100 ppm)”. In addition, in [5] (setting [13]), the mortality at 200 ppm worked out at 0% and the “SM RESULTS %” value was 0%. Also, the activity as miticides result in data set [5] is recorded as “particularly excellent activity”. The “POWD MDEW” value in data set [6] is on record as “+ (20-89% control at 400 ppm)”. The “GRAY MOLD” value in data set [7] is listed as “- (0-19% control at 400 ppm)”. For the same compound, the “DOWN MDEW” value in [8] was “+++ (90-100% control at 100 ppm)”. Also, the “LEAF RUST” value in [9] is reported as “+++ (90-100% control at 100 ppm)”. In data set [10] (SM & MA RATE 200 PPM), the mortality at 200 ppm came to 0% and the “MA RESULTS %” value is listed as 0%. Further, in data set [11], the “LEAF BLOT” value was “+++ (90-100% control at 100 ppm)”. Moreover, the “APPL SCAB” value in data set [12] is given as “- (0-19% control at 400 ppm)”.

Take `Fc1cccc2c(NCCc3ccc(Cl)cc3Cl)cc(Cl)nc12` [Example 98, 2-chloro-N-[2-(2,4-dichlorophenyl)ethyl]-8-fluoro-4-quinolinamine]: the mortality at 200 ppm in data set [1] (SM & MA RATE 200 PPM), in data set [5] (setting [13]) and in data set [10] (SM & MA RATE 200 PPM) was 0% each time. In addition, the “LEAF SPOT” value in [2] is “- (0-19% control at 400 ppm)”. In addition, in [3] (CRW RATE 12.00 PPM), the mortality at 12 ppm was determined as 0%. The “RICE BLAST” value in data set [4] was “+ (20-89% control at 400 ppm)”. Moreover, in data set [6], the “POWD MDEW” value is reported as “- (0-19% control at 400 ppm)”. For the same compound, the “GRAY MOLD” value in data set [7] is “- (0-19% control at 400 ppm)”. Also, the “DOWN MDEW” value in [8] is “++ (90-100% control at 400 ppm)”. Moreover, the “LEAF RUST” value in data set [9] was “++ (90-100% control at 400 ppm)”. For the same compound, the “LEAF BLOT” value in [11] is reported as “- (0-19% control at 400 ppm)”. The “APPL SCAB” value in data set [12] is recorded as “- (0-19% control at 400 ppm)”.

`FC(F)(F)c1cccc2c(NCCc3ccccc3)ccnc12` [Example 99, N-(2-phenylethyl)-8-(trifluoromethyl)-4-quinolinamine]: the mortality at 200 ppm in data set [1] (SM & MA RATE 200 PPM), in [5] (setting [13]) and in data set [10] (SM & MA RATE 200 PPM) was 0% in each case. For the same compound, the “LEAF SPOT” value in [2] was “+ (20-89% control at 400 ppm)”. In addition, in data set [3] (CRW RATE 12.00 PPM), the mortality at 12 ppm was 0%. The “RICE BLAST” value in data set [4] is “++ (90-100% control at 400 ppm)”. The “POWD MDEW” value in data set [6] is “- (0-19% control at 400 ppm)”. For the same compound, the “GRAY MOLD” value in data set [7] is recorded as “- (0-19% control at 400 ppm)”. Besides, in [8], the “DOWN MDEW” value is given as “+++ (90-100% control at 100 ppm)”. Besides, in data set [9], the “LEAF RUST” value is reported as “+++ (90-100% control at 100 ppm)”. Besides, in data set [11], the “LEAF BLOT” value is “- (0-19% control at 400 ppm)”. The “APPL SCAB” value in data set [12] was “- (0-19% control at 400 ppm)”.

For the compound `Clc1ccc2c(NCCc3ccc(Cl)c(Cl)c3)ccnc2c1` [Example 101, 7-chloro-N-[2-(3,4-dichlorophenyl)ethyl]-4-quinolinamine], the mortality at 200 ppm in [1] (SM & MA RATE 200 PPM), in data set [5] (setting [13]) and in [10] (SM & MA RATE 200 PPM) was 0% throughout. Moreover, the mortality at 400 ppm turned out to be 0% in data set [1]; 0% in data set [5] (percent mortality, SAW); 0% in data set [10]. In addition, the “LEAF SPOT” value in [2] is reported as “+++ (90-100% control at 100 ppm)”. Besides, in [3] (CRW RATE 12.00 PPM), the mortality at 12 ppm was 0%. In data set [3], the mortality at 24 ppm was 0%. Moreover, the “RICE BLAST” value in [4] is reported as “- (0-19% control at 400 ppm)”. Besides, the “POWD MDEW” value in [6] is “+++ (90-100% control at 100 ppm)”. Besides, the “GRAY MOLD” value in data set [7] was “- (0-19% control at 400 ppm)”. Also, the “DOWN MDEW” value in data set [8] is given as “+++ (90-100% control at 100 ppm)”. Moreover, the “LEAF RUST” value in data set [9] is “+ (20-89% control at 400 ppm)”. Also, the “LEAF BLOT” value in data set [11] is “- (0-19% control at 400 ppm)”. Also, the “APPL SCAB” value in data set [12] was “+ (20-89% control at 400 ppm)”.

As for `Fc1cccc(Cl)c1CCNc1ccnc2c(F)cccc12` [Example 103, N-[2-(2-chloro-6-fluorophenyl)ethyl]-8-fluoro-4-quinolinamine], the mortality at 200 ppm in data set [1] (SM & MA RATE 200 PPM), in [5] (setting [13]) and in data set [10] (SM & MA RATE 200 PPM) was 0% throughout. In addition, the mortality at 400 ppm is 0% in [1]; 0% in data set [5] (percent mortality, SAW); 0% in [10]. In data set [2], the “LEAF SPOT” value is “+ (20-89% control at 400 ppm)”. The mortality at 12 ppm in data set [3] (CRW RATE 12.00 PPM) came to 0%. Moreover, the mortality at 24 ppm in [3] was found to be 0%. In [4], the “RICE BLAST” value is listed as “++ (90-100% control at 400 ppm)”. In addition, the “POWD MDEW” value in data set [6] is given as “+ (20-89% control at 400 ppm)”. In data set [7], the “GRAY MOLD” value is “- (0-19% control at 400 ppm)”. Also, the “DOWN MDEW” value in data set [8] is recorded as “+++ (90-100% control at 100 ppm)”. The “LEAF RUST” value in data set [9] is on record as “++ (90-100% control at 400 ppm)”. Besides, the “LEAF BLOT” value in data set [11] was “+ (20-89% control at 400 ppm)”. The “APPL SCAB” value in data set [12] is “+++ (90-100% control at 100 ppm)”.

As for `FC(F)(F)c1ccc2c(NCCc3ccc(Cl)cc3Cl)ccnc2c1` [Example 104, N-[2-(2,4-dichlorophenyl)ethyl]-7-(trifluoromethyl)-4-quinolinamine], the mortality at 200 ppm in data set [1] (SM & MA RATE 200 PPM), in data set [5] (setting [13]) and in data set [10] (SM & MA RATE 200 PPM) was 0% in each case. The mortality at 400 ppm in data set [1] was 60%; in [5] (percent mortality, SAW), 0%; in data set [10] it was 0%. The “LEAF SPOT” value in [2] is reported as “+ (20-89% control at 400 ppm)”. Also, in data set [3] (CRW RATE 12.00 PPM), the mortality at 12 ppm came out at 0%. Moreover, the mortality at 24 ppm in [3] is 0%. Further, the “RICE BLAST” value in data set [4] is given as “- (0-19% control at 400 ppm)”. In data set [6], the “POWD MDEW” value is listed as “- (0-19% control at 400 ppm)”. The “GRAY MOLD” value in data set [7] is “- (0-19% control at 400 ppm)”. Further, the “DOWN MDEW” value in data set [8] is listed as “++ (90-100% control at 400 ppm)”. In addition, in [9], the “LEAF RUST” value is recorded as “- (0-19% control at 400 ppm)”. Besides, in data set [11], the “LEAF BLOT” value is on record as “- (0-19% control at 400 ppm)”. The “APPL SCAB” value in data set [12] is “+ (20-89% control at 400 ppm)”.

With `CCN(CCc1ccc(Cl)cc1)c1ccnc2c(F)cccc12` [Example 105, N-[2-(4-chlorophenyl)ethyl]-N-ethyl-8-fluoro-4-quinolinamine], the mortality at 200 ppm in [1] (SM & MA RATE 200 PPM) is 30%; in [5] (setting [13]) it was 100%; in data set [10] (SM & MA RATE 200 PPM) it was 80%. The mortality at 400 ppm was determined as 0% in data set [1]; 0% in data set [5] (percent mortality, SAW); 50% in data set [10]. Also, in [2], the “LEAF SPOT” value is “+ (20-89% control at 400 ppm)”. The mortality at 12 ppm in data set [3] (CRW RATE 12.00 PPM) turned out to be 0%. In addition, the mortality at 24 ppm in data set [3] stood at 0%. Also, the “RICE BLAST” value in data set [4] is listed as “++ (90-100% control at 400 ppm)”. Also, the activity as miticides entry in [5] is “particularly excellent activity”. Besides, the “POWD MDEW” value in [6] is listed as “+++ (90-100% control at 100 ppm)”. In addition, in data set [7], the “GRAY MOLD” value is listed as “- (0-19% control at 400 ppm)”. The “DOWN MDEW” value in data set [8] is given as “+++ (90-100% control at 100 ppm)”. In data set [9], the “LEAF RUST” value is reported as “+++ (90-100% control at 100 ppm)”. Moreover, in data set [11], the “LEAF BLOT” value is on record as “+ (20-89% control at 400 ppm)”. Further, in [12], the “APPL SCAB” value is recorded as “- (0-19% control at 400 ppm)”.
